Data from US20240270762A1, “PENICILLIN-BINDING PROTEIN INHIBITORS” (priority 2021, published 2024).
≈ marks a conversion by molar mass, not a printed value.

Key:
[1] = tested on: E. coli ATCC 25922; assay: microbe, parasite or virus in culture; format: cell-based; conditions: Escherichia coli, ATCC25922, read-out: MIC E. coli 25922
[2] = tested on: E. coli AG100; assay: microbe, parasite or virus in culture; format: cell-based; conditions: Escherichia coli, AG100, read-out: MIC E. coli AG100
[3] = tested on: E. coli 901C; assay: microbe, parasite or virus in culture; format: cell-based; conditions: Escherichia coli, read-out: MIC E. coli 901C
[4] = tested on: E. coli D22; assay: microbe, parasite or virus in culture; format: cell-based; conditions: Escherichia coli, D22, read-out: MIC E. coli D22
[5] = tested on: K. pneumoniae 848844; assay: microbe, parasite or virus in culture; format: cell-based; conditions: Klebsiella pneumoniae, 848844, read-out: MIC K. pneumoniae 848844
[6] = tested on: K. pneumoniae SI-117; assay: microbe, parasite or virus in culture; format: cell-based; conditions: Klebsiella pneumoniae, SI117, read-out: MIC K. pneumoniae SI-117
[7] = tested on: P. aeruginosa ATCC 35151; assay: microbe, parasite or virus in culture; format: cell-based; conditions: Pseudomonas aeruginosa, ATCC35151, read-out: MIC P. aeruginosa ATCC 35151
[8] = tested on: B. pseudomallei Bp82; assay: microbe, parasite or virus in culture; format: cell-based; conditions: Burkholderia pseudomallei, BP82, read-out: Minimum inhibitory concentration, B. pseudomallei Bp82
[9] = target: T1, PBP1a from Acinetobacter baumannii (ATCC 19606) (Acinetobacter baumannii, UniProt A0ABX6CK30); assay: Bocillin-FL fluorescence polarization competition binding, A. baumannii PBP1a; conditions: fluorescence polarization competition binding assay using Bocillin-FL; read-out: A. baumannii PBP1a Potency
T1 sequence (A0ABX6CK30 1-851): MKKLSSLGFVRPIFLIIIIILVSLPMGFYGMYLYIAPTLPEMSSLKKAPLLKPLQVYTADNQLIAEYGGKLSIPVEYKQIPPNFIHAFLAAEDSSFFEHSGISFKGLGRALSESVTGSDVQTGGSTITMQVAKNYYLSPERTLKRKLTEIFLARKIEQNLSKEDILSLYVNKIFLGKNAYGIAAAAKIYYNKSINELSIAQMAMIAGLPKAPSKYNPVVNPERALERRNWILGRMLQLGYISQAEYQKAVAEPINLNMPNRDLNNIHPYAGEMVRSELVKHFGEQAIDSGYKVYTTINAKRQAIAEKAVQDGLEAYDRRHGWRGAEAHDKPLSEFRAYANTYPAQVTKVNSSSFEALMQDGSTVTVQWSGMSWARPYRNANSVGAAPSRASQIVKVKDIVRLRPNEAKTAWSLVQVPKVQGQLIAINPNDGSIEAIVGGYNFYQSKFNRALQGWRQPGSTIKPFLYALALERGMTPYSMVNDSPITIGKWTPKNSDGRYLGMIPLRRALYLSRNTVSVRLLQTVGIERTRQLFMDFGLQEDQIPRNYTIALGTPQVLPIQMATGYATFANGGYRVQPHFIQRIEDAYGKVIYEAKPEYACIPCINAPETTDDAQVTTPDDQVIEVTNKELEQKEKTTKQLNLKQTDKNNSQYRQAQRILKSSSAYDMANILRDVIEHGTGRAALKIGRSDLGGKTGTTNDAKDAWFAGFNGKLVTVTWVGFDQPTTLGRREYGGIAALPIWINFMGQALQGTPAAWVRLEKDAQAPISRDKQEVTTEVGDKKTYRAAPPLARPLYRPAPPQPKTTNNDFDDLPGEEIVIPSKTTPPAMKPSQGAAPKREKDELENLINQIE
In short: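 Purified PBPs pre-incubated with inhibitor (E. coli PBP3 1.5 μM, 30 min; P. aeruginosa PBP3 0.75 μM, A. baumannii PBP1a 1 μM and PBP3 0.2 μM, 15 min), then Bocillin-FL 0.1 μM (0.05 μM for PBP1a) added; FP read up to 60 min. EC50 = concentration halving bound Bocillin-FL.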

O=C(O)c1c(F)ccc2c1OB(O)[C@@H](NC(=O)[C@H](NC(=O)N1CCN(Cc3ccc(O)c(O)c3Cl)C(=O)C1=O)c1ccc(P(=O)(O)O)cc1)C2 (single isomer, unassigned) [Example 160]
MIC [1]: 2 to 4 µg/mL (≈ 2.72 to 5.44 µM)
MIC [2]: < 1 µg/mL
MIC [3]: < 1 µg/mL
MIC [4]: 2 to 4 µg/mL (≈ 2.72 to 5.44 µM)
MIC [5]: 32 to 64 µg/mL (≈ 43.6 to 87.1 µM)
MIC [6]: 8 to 16 µg/mL (≈ 10.9 to 21.8 µM)
MIC [7]: < 1 µg/mL

O=C(O)c1c(F)ccc2c1OB(O)[C@@H](NC(=O)[C@H](NC(=O)N1CCN(C3CCN(C(=O)c4cc(F)c(O)c(O)c4Cl)CC3)C1=O)c1ccc(P(=O)(O)O)cc1)C2 (single isomer, unassigned) [Example 495]
MIC [8]: < 1 µg/mL

O=C(O)c1c(F)ccc2c1OB(O)[C@@H](NC(=O)[C@H](NC(=O)N1CCN(C3CCN(C(=O)Nc4ccc(O)c(O)c4Cl)CC3)C1=O)c1ccc(P(=O)(O)O)cc1)C2 (single isomer, unassigned) [Example 497]
MIC [8]: < 1 µg/mL

O=C(O)c1c(F)ccc2c1OB(O)[C@@H](NC(=O)[C@H](NC(=O)N1CCN(C3CCN(C(=O)Nc4cc(F)c(O)c(O)c4Cl)CC3)C1=O)c1ccc(P(=O)(O)O)cc1)C2 (single isomer, unassigned) [Example 500]
MIC [8]: < 1 µg/mL

O=C(O)c1c(F)ccc2c1OB(O)[C@@H](NC(=O)[C@H](NC(=O)N1CCN(C3CCN(C(=O)Nc4cccc(O)c4Cl)CC3)C(=O)C1=O)c1cc(F)c(O)c(O)c1Cl)C2 [Example 482, (R)-3-((R)-2-(4-(1-((2-chloro-3-hydroxyphenyl)carbamoyl)piperidin-4-yl)-2,3-dioxopiperazine-1-carboxamido)-2-(2-chloro-5-fluoro-3,4-dihydroxyphenyl)acetamido)-7-fluoro-2-hydroxy-3,4-dihydro-2H-benzo[e][1,2]oxaborinine-8-carboxylic acid]
IC50 [9]: > 250 µM

O=C(O)c1c(F)ccc2c1OB(O)[C@@H](NC(=O)C(NC(=O)N1CCN(C3CCN(C(=O)Nc4cc(O)ccc4Cl)CC3)C(=O)C1=O)c1cc(F)c(O)c(O)c1Cl)C2 (stereo partly drawn) [Example 483, (3R)-3-(2-(2-chloro-5-fluoro-3,4-dihydroxyphenyl)-2-(4-(1-((2-chloro-5-hydroxyphenyl)carbamoyl)piperidin-4-yl)-2,3-dioxopiperazine-1-carboxamido)acetamido)-7-fluoro-2-hydroxy-3,4-dihydro-2H-benzo[e][1,2]oxaborinine-8-carboxylic acid]
IC50 [9]: > 250 µM

O=C(O)c1c(F)ccc2c1OB(O)[C@@H](NC(=O)C(NC(=O)N1CCN(C3CCN(C(=O)Nc4cc(O)cc(Cl)c4)CC3)C(=O)C1=O)c1cc(F)c(O)c(O)c1Cl)C2 (stereo partly drawn) [Example 484, (3R)-3-(2-(2-chloro-5-fluoro-3,4-dihydroxyphenyl)-2-(4-(1-((3-chloro-5-hydroxyphenyl)carbamoyl)piperidin-4-yl)-2,3-dioxopiperazine-1-carboxamido)acetamido)-7-fluoro-2-hydroxy-3,4-dihydro-2H-benzo[e][1,2]oxaborinine-8-carboxylic acid]
IC50 [9]: > 250 µM

O=C(O)c1c(F)ccc2c1OB(O)[C@@H](NC(=O)[C@H](NC(=O)N1CCN(C3CCN(C(=O)c4ccc(O)c(O)c4Cl)CC3)C1=O)c1ccc(P(=O)(O)O)cc1)C2 [Example 494, (R)-3-((R)-2-(3-(1-(2-chloro-3,4-dihydroxybenzoyl)piperidin-4-yl)-2-oxoimidazolidine-1-carboxamido)-2-(4-phosphonophenyl)acetamido)-7-fluoro-2-hydroxy-3,4-dihydro-2H-benzo[e][1,2]oxaborinine-8-carboxylic acid]
MIC [8]: < 1 µg/mL

O=C(O)c1c(F)ccc2c1OB(O)[C@@H](NC(=O)[C@H](NC(=O)N1CCN(C3CCN(C(=O)c4cc(O)c(O)c(Cl)c4)CC3)C1=O)c1ccc(P(=O)(O)O)cc1)C2 [Example 496, (R)-3-((R)-2-(3-(1-(3-chloro-4,5-dihydroxybenzoyl)piperidin-4-yl)-2-oxoimidazolidine-1-carboxamido)-2-(4-phosphonophenyl)acetamido)-7-fluoro-2-hydroxy-3,4-dihydro-2H-benzo[e][1,2]oxaborinine-8-carboxylic acid]
MIC [8]: < 1 µg/mL

O=C(O)c1c(F)ccc2c1OB(O)[C@@H](NC(=O)[C@H](NC(=O)N1CCN(Cc3ccc(O)c(O)c3Cl)C(=O)C1=O)c1cc(F)c(P(=O)(O)O)c(F)c1)C2 [Example 502, (R)-3-((R)-2-(4-(2-chloro-3,4-dihydroxybenzyl)-2,3-dioxopiperazine-1-carboxamido)-2-(3,5-difluoro-4-phosphonophenyl)acetamido)-7-fluoro-2-hydroxy-3,4-dihydro-2H-benzo[e][1,2]oxaborinine-8-carboxylic acid]
MIC [8]: < 1 µg/mL

O=C(NCCN1CCN(C(=O)N[C@@H](C(=O)N[C@H]2Cc3ccc(F)c(C(=O)O)c3OB2O)c2ccc(P(=O)(O)O)cc2)C(=O)C1=O)c1ccc(O)c(O)c1Cl [Example 503, (R)-3-((R)-2-(4-(2-(2-chloro-3,4-dihydroxybenzamido)ethyl)-2,3-dioxopiperazine-1-carboxamido)-2-(4-phosphonophenyl)acetamido)-7-fluoro-2-hydroxy-3,4-dihydro-2H-benzo[e][1,2]oxaborinine-8-carboxylic acid]
MIC [8]: < 1 µg/mL

O=C(O)c1cccc2c1OB(O)[C@@H](NC(=O)[C@H](NC(=O)N1CCN(Cc3cc(F)c(O)c(O)c3Cl)C(=O)C1=O)c1ccc(P(=O)(O)O)cc1)C2 [Example 504, (R)-3-((R)-2-(4-(2-chloro-5-fluoro-3,4-dihydroxybenzyl)-2,3-dioxopiperazine-1-carboxamido)-2-(4-phosphonophenyl)acetamido)-2-hydroxy-3,4-dihydro-2H-benzo[e][1,2]oxaborinine-8-carboxylic acid]
MIC [1]: < 1 µg/mL
MIC [2]: < 1 µg/mL
MIC [3]: < 1 µg/mL
MIC [4]: 2 to 4 µg/mL (≈ 2.72 to 5.44 µM)
MIC [5]: 2 to 4 µg/mL (≈ 2.72 to 5.44 µM)
MIC [6]: 2 to 4 µg/mL (≈ 2.72 to 5.44 µM)
MIC [7]: < 1 µg/mL

O=C(O)c1c(F)ccc2c1OB(O)[C@@H](NC(=O)C(NC(=O)N1CCN(S(=O)(=O)c3ccc(O)c(O)c3Cl)C1=O)c1ccc(P(=O)(O)O)cc1)C2 (stereo partly drawn) [Example 505, (3R)-3-(2-(3-((2-chloro-3,4-dihydroxyphenyl)sulfonyl)-2-oxoimidazolidine-1-carboxamido)-2-(4-phosphonophenyl)acetamido)-7-fluoro-2-hydroxy-3,4-dihydro-2H-benzo[e][1,2]oxaborinine-8-carboxylic acid]
MIC [1]: < 1 µg/mL
MIC [2]: < 1 µg/mL
MIC [3]: < 1 µg/mL
MIC [4]: < 1 µg/mL
MIC [5]: < 1 µg/mL
MIC [6]: < 1 µg/mL
MIC [7]: < 1 µg/mL
MIC [8]: < 1 µg/mL

O=C(O)c1c(F)ccc2c1OB(O)[C@@H](NC(=O)[C@H](NC(=O)N1CCN(S(=O)(=O)c3ccc(O)c(O)c3Cl)C1=O)c1ccc(P(=O)(O)O)cc1)C2 [Example 506, (R)-3-((R)-2-(3-((2-chloro-3,4-dihydroxyphenyl)sulfonyl)-2-oxoimidazolidine-1-carboxamido)-2-(4-phosphonophenyl)acetamido)-7-fluoro-2-hydroxy-3,4-dihydro-2H-benzo[e][1,2]oxaborinine-8-carboxylic acid]
MIC [1]: < 1 µg/mL
MIC [2]: < 1 µg/mL
MIC [3]: < 1 µg/mL
MIC [4]: < 1 µg/mL
MIC [5]: 2 to 4 µg/mL (≈ 2.64 to 5.29 µM)
MIC [6]: < 1 µg/mL
MIC [7]: < 1 µg/mL
MIC [8]: < 1 µg/mL

O=C(O)c1cccc2c1OB(O)[C@@H](NC(=O)[C@H](NC(=O)N1CCN(S(=O)(=O)c3ccc(O)c(O)c3Cl)C1=O)c1ccc(P(=O)(O)O)cc1)C2 [Example 509, (R)-3-((R)-2-(3-((2-chloro-3,4-dihydroxyphenyl)sulfonyl)-2-oxoimidazolidine-1-carboxamido)-2-(4-phosphonophenyl)acetamido)-2-hydroxy-3,4-dihydro-2H-benzo[e][1,2]oxaborinine-8-carboxylic acid]
MIC [1]: < 1 µg/mL
MIC [2]: < 1 µg/mL
MIC [3]: < 1 µg/mL
MIC [4]: < 1 µg/mL
MIC [5]: < 1 µg/mL
MIC [6]: < 1 µg/mL
MIC [7]: < 1 µg/mL
MIC [8]: < 1 µg/mL
